Experiment [1] has as its system Gram positive and Gram negative bacteria. Kind of experiment: Contact-killing on surface coated with composition B at various contact times. Type of experiment: cell-based, B. subtilis, S. aureus, E. coli. The settings on record: 10 min contact, without encapsulation. As to the method:
A hundred microliters of 10^7.cm^−3 bacteria cell suspension was placed in contact with the coated surface at ambient condition (23±2° C., 70% R.H.) in a sterilized biological safety cabinet (NuAire, Nu-425-400E). Three sets of runs of five samples each were carried out at the fixed contact times of 1, 5, 10 and 30 min. The samples were immersed into a primary subculture tube containing 20 ml neutralizer for 30 min to stabilize the surviving bacteria cells. The sterile neutralizer solution was freshly prepared by adding 1% (v/v) 0.1 M Na2S2O3 to 600 ml of 0.85% (w/v) normal saline (NaCl, RDH) solution containing 0.1% (v/v) (final concentration) of polyoxyethylenesorbitan monooleate (Tween 80) followed by autoclave at 121° C. for 20 min. A hundred microliters aliquots from the neutralizer were cultured on a TSA plate. The numbers of viable bacteria were counted after incubating the plates for 24 h at 37±0.1° C. The sample was drip-dried and transferred to a second subculture tube containing 20 ml of sterile nutrient broth (Nutrient broth no. 2, Oxoid) for 10 min. A hundred microliters aliquots from the nutrient broth were cultured on a TSA plate. The numbers of viable bacteria were counted after incubating the plates for 24 h at 37±0.1° C.

Another experiment deals with S. aureus. Kind of experiment: Kirby-Bauer disk diffusion test. Type of experiment: cell-based. The settings on record: wafer coated and dried. As to the method:
Standard Kirby-Bauer disk diffusion test was performed using S. aureus. Sterile TSA plates were evenly inoculated with a loopful (ca. 100 μl) of S. aureus inoculum from the broth culture (ca. 10^6.cm^−3). […] A filter paper coated with 100 μl of 70% ethanol without drying was used as positive control
The Kirby-Bauer disk diffusion test was conducted, a standard antimicrobial test method using impregnated wafers to test whether particular bacteria are susceptible by comparing the area of clearing that surrounds the wafer where bacteria are not capable of growing (called a zone of inhibition).
(A growth-free zone around the sample is the usual read-out of agar diffusion tests.)

Consider `[O][Cl+][O-]` [chlorine dioxide], for which, in experiment [1], the “antimicrobial effect (in words)” value is given as “ineffective”. Take ethanol [70% alcohol]: the zone of inhibition entry with S. aureus is reported as “do not show zones of inhibition”.

(Values after patent US8968758B2, “Material for forming a multi-level antimicrobial surface coating and its preparation” (The Hong Kong University of Science and Technology …, priority 2008, dated 2015).)
